Where only a bound is given, the exact number is not on record here.

The subject of the test is Plasmodium berghei. The test is described as follows: Luciferase/luciferin-expressing antifolate-resistant parasites were used to infect a culture of HepG2 cells that were pre-incubated with compounds. Infected hepatocytes emit light due to the luciferase reaction. Assay results are presented as the percent inhibition of light emission compared to control. […]. The test is classed as functional. Conditions: sporozoite; for IC90: read-out: LUCIFERASE INFECTION ASSAY - IC90.

The mark [1] stands for this setting: read-out: LUCIFERASE INFECTION ASSAY - IC50.

In general, IC50 refers to the concentration that gives 50% inhibition. For orientation: IC90 means the concentration needed for an effect of 90%. As to `Cc1cccc(-c2nc3c(NCc4ccccc4)nccc3[nH]2)c1`, the IC90 worked out at 9.18 µM. In addition, the IC50 (PBLUC_HILL_SLOPE 2.29, PBLUC_R_SQUARED 0.394, read-out: LUCIFERASE INFECTION ASSAY - IC50) worked out at 3.51 µM.

In the case of `O=C(NC1CC1)c1ccc(CN(C2CC2)S(=O)(=O)c2ccc3c(c2)OCCCO3)cc1`, the concentration for an effect of 90% (IC90) amounted to 5.38 µM. Besides, the 50% inhibitory concentration (IC50) (PBLUC_HILL_SLOPE 2.85, PBLUC_R_SQUARED 0.458, read-out: LUCIFERASE INFECTION ASSAY - IC50) was determined as 2.49 µM.

As to `CCOc1cccc(-c2cn3c(-c4cnn(C)c4)cnc3cn2)c1`, the IC90 is above 10.3 µM. The IC50 (HEPG2TOX_HILL_SLOPE 7.89, HEPG2TOX_R_SQUARED 0.0776, PBLUC_HILL_SLOPE 1.98, PBLUC_R_SQUARED 0.483, read-out: LUCIFERASE INFECTION ASSAY - IC50) stood at 3.78 µM.

Turning to `Cc1nc(Sc2ncnc3scc(-c4ccc(F)cc4)c23)oc1C`, the IC90 is above 10 µM. For the same compound, the IC50 under setting [1] was above 10 µM.

In the case of `CN1CCCN(c2ncnc3cc(-c4ccc(Cl)cc4)sc23)CC1`, the 90% effect concentration (IC90) is above 10 µM. Moreover, the IC50 (PBLUC_HILL_SLOPE 23.2, PBLUC_R_SQUARED 0.558, read-out: LUCIFERASE INFECTION ASSAY - IC50) was determined as 9.79 µM.

As to `COc1ccc(CO)c(Cl)c1OC`, the IC90 is above 16.3 µM. Moreover, the IC50 under setting [1] was above 16.3 µM.

Consider `COC(=O)c1occc1CSc1nc2ccc(Br)cc2c(=O)n1-c1ccccc1`, for which the 90% effect concentration (IC90) was above 10 µM. For the same compound, the IC50 (PBLUC_HILL_SLOPE 130, PBLUC_R_SQUARED 0.0623, read-out: LUCIFERASE INFECTION ASSAY - IC50) turned out to be 10 µM.

As to `O=C(CCn1ccc2ccccc21)NC(Cc1ncc[nH]1)c1ccccc1` (configuration not stated), the IC90 turned out to be 4.79 µM. For the same compound, where the note is “PBLUC_HILL_SLOPE 8.72, PBLUC_R_SQUARED 0.12, read-out: LUCIFERASE INFECTION ASSAY - IC50”, the IC50 was 3.72 µM.

Regarding `CNc1nc2cnc(Nc3ccc(Oc4ccccc4)cc3)cc2n1C`, the 90% effect concentration (IC90) was above 10 µM. Under setting [1], the IC50 is above 10 µM.

Turning to `COc1cc(OC)c(NC(=O)c2cc3ccccc3cc2OCC(=O)NCc2ccco2)cc1Cl`, the IC90 is above 10 µM. In addition, under “PBLUC_HILL_SLOPE 22.1, PBLUC_R_SQUARED 0.617, read-out: LUCIFERASE INFECTION ASSAY - IC50”, the IC50 came out at 9.17 µM.

On to `NC(=O)c1cccc(-c2ccc3ncc(-c4cccnc4)n3n2)c1`, for which the IC90 came to 5.41 µM. Also, the IC50 (HEPG2TOX_HILL_SLOPE 3.58, HEPG2TOX_R_SQUARED 0.988, PBLUC_HILL_SLOPE 1.15, PBLUC_R_SQUARED 0.587, read-out: LUCIFERASE INFECTION ASSAY - IC50) is 0.804 µM.

In the case of `COc1ccccc1OCCNC(=O)c1cc(C2CC2)nc2c1cnn2C(C)C`, the IC90 is above 10 µM. Where the note is “FFLUC_HILL_SLOPE 16.8, FFLUC_R_SQUARED 0.0713, HEPG2TOX_HILL_SLOPE 2.22, HEPG2TOX_R_SQUARED 0.212, read-out: LUCIFERASE INFECTION ASSAY - IC50”, the 50% inhibitory concentration (IC50) was above 10 µM.

In the case of `Cc1ccc(NC(=O)/C(=N/N)c2c(-c3ccccc3)nc3ccccn23)c(Br)c1`, the concentration for an effect of 90% (IC90) was above 10 µM. The IC50 under setting [1] was above 10 µM.

For `Cc1nn(C)c(NC(=O)c2ccc(Cl)cc2)c1Br`, the concentration for an effect of 90% (IC90) was above 10 µM. Moreover, the IC50 (PBLUC_HILL_SLOPE 41, PBLUC_R_SQUARED 0.305, read-out: LUCIFERASE INFECTION ASSAY - IC50) is above 10 µM.

`CC(=O)Nc1ccc(NC(=O)C2=COC3=NC(=O)N(Cc4ccccc4C)CCN23)cc1`: the concentration for an effect of 90% (IC90) was above 10 µM. The 50% inhibitory concentration (IC50) (HEPG2TOX_HILL_SLOPE 0.88, HEPG2TOX_R_SQUARED 0.892, PBLUC_HILL_SLOPE 1, PBLUC_R_SQUARED 0.725, read-out: LUCIFERASE INFECTION ASSAY - IC50) turned out to be 4.16 µM.

With `COc1ccc(N(CCC23CC4CC(CC(C4)C2)C3)S(=O)(=O)c2ccccc2)cc1`, the IC90 was above 10 µM. The IC50 under setting [1] was above 10 µM.

In the case of `CCOC(=O)c1c(NC(=O)CSc2nnc(N)[nH]2)sc(Br)c1-c1ccccc1`, the IC90 is above 10 µM. Also, the half-inhibitory concentration (IC50) under setting [1] was 6.28 µM.

Take `CCCC(/N=C/c1cc(Cl)ccc1O)/N=C/c1cc(Cl)ccc1O`: the concentration for an effect of 90% (IC90) is above 9.03 µM. Further, the half-inhibitory concentration (IC50) under setting [1] was above 9.03 µM.

For the compound `COc1ccc(N(CCC(N)=O)CC(=O)NC(C)c2ccccc2OC)cc1` (configuration not stated), the IC90 is above 10 µM. The IC50 under setting [1] is above 10 µM.

As for `O=C(c1ccc(N2CCCC2=O)cc1)N1CCN(C2CCS(=O)(=O)C2)CC1` (configuration not stated), the concentration for an effect of 90% (IC90) is above 10 µM. For the same compound, the IC50 under setting [1] is above 10 µM.

Consider `O=C(c1ccsc1)N1CCc2nc(NCc3cccc(Oc4ccccc4)c3)ncc2C1`, for which the IC90 was above 7.46 µM. For the same compound, the 50% inhibitory concentration (IC50) (HEPG2TOX_HILL_SLOPE 8.11, HEPG2TOX_R_SQUARED 0.885, read-out: LUCIFERASE INFECTION ASSAY - IC50) is above 7.46 µM.

Take `Cc1cc(Cl)ccc1OCCCc1nc2ccc(Cl)cc2[nH]1`: the IC90 is above 10 µM. Where the note is “PBLUC_HILL_SLOPE 2.8, PBLUC_R_SQUARED 0.541, read-out: LUCIFERASE INFECTION ASSAY - IC50”, the 50% inhibitory concentration (IC50) is 7.39 µM.

As to `Cc1ccc2c(c1)CCCN2C(=O)CCc1nc(O)c2ccccc2n1`, the IC90 was above 10 µM. For the same compound, the IC50 (HEPG2TOX_HILL_SLOPE 1.38, HEPG2TOX_R_SQUARED 0.978, PBLUC_HILL_SLOPE 0.881, PBLUC_R_SQUARED 0.443, read-out: LUCIFERASE INFECTION ASSAY - IC50) is 3.89 µM.

As to `COCCN(Cc1nc(=O)c2ccccc2[nH]1)C(=O)C1=NN(c2ccccc2)C(c2ccccc2)C1` (configuration not stated), the concentration for an effect of 90% (IC90) is above 10 µM. Besides, the IC50 under setting [1] is above 10 µM.

For the compound `N#CC(C(=O)COC(=O)c1nc(-c2ccccc2)n(-c2ccccc2)n1)=C1Nc2ccccc2N1`, the IC90 was above 10 µM. For the same compound, the IC50 under setting [1] was above 10 µM.

As for `CCOc1ccccc1NC(=O)c1cc(CC(C)C)oc1C`, the IC90 is above 10.9 µM. In addition, the 50% inhibitory concentration (IC50) under setting [1] is above 10.9 µM.

As to `Cc1cc(C)nc(N/N=C/c2cn(-c3ccccc3)nc2-c2ccc3c(c2)OCCO3)n1`, the concentration for an effect of 90% (IC90) was 9.32 µM. Besides, the half-inhibitory concentration (IC50) (HEPG2TOX_HILL_SLOPE 17.9, HEPG2TOX_R_SQUARED 0.773, PBLUC_HILL_SLOPE 3.73, PBLUC_R_SQUARED 0.671, read-out: LUCIFERASE INFECTION ASSAY - IC50) worked out at 5.18 µM.

As for `Cc1c(C(=O)Nc2ncccc2O)[nH]c2c1C(=O)CCC2`, the concentration for an effect of 90% (IC90) is above 10 µM. Moreover, the 50% inhibitory concentration (IC50) (FFLUC_HILL_SLOPE 16.5, FFLUC_R_SQUARED 0.153, HEPG2TOX_HILL_SLOPE 5.63, HEPG2TOX_R_SQUARED 0.429, read-out: LUCIFERASE INFECTION ASSAY - IC50) was above 10 µM.

With `CC1CCN(/C(=N/S(=O)(=O)c2ccc(-n3nc(C(F)(F)F)cc3-c3cccs3)cc2)N/N=C/c2ccc(Cl)cc2)CC1`, the IC90 is above 5.2 µM. Besides, the concentration for half-maximal inhibition (IC50) (FFLUC_HILL_SLOPE 12.3, FFLUC_R_SQUARED 0.48, read-out: LUCIFERASE INFECTION ASSAY - IC50) was above 5.2 µM.

As for `O=[N+]([O-])c1cc(/C=N/O)ccc1Sc1ccccc1`, the 90% effect concentration (IC90) was above 12 µM. Further, the IC50 (PBLUC_HILL_SLOPE 15.1, PBLUC_R_SQUARED 0.212, read-out: LUCIFERASE INFECTION ASSAY - IC50) was above 12 µM.

With `Cc1cc(N2CCN(c3nc(C)cc(C)c3C#N)CC2)nc(C(C)C)n1`, the 90% effect concentration (IC90) was above 10 µM. Under setting [1], the concentration for half-maximal inhibition (IC50) is above 10 µM.

In the case of `Cc1noc2nc(C3CC3)cc(C(=O)Nc3cccc(C(F)(F)F)c3)c12`, the concentration for an effect of 90% (IC90) was determined as 1.12 µM. For the same compound, where the note is “PBLUC_HILL_SLOPE 17.7, PBLUC_R_SQUARED 0.604, read-out: LUCIFERASE INFECTION ASSAY - IC50”, the IC50 was 0.99 µM.

On to `O=C(N/N=C/c1ccc(N2CCOCC2)s1)c1ccc(COc2cccc3cccnc23)cc1`, for which the IC90 is above 10 µM. Moreover, where the note is “HEPG2TOX_HILL_SLOPE 12.5, HEPG2TOX_R_SQUARED 0.767, PBLUC_HILL_SLOPE 2.46, PBLUC_R_SQUARED 0.528, read-out: LUCIFERASE INFECTION ASSAY - IC50”, the IC50 amounted to 5.64 µM.

`CNC(=O)c1cnc(N2CCN(Cc3ccccc3C#N)C2=O)s1`: the IC90 is above 10 µM. For the same compound, the concentration for half-maximal inhibition (IC50) under setting [1] was above 10 µM.

As for `CCC(=O)Nc1c(-c2nc3ccccc3[nH]2)c(C)c(C)n1C1CCCC1`, the IC90 is above 9.42 µM. Further, the IC50 (PBLUC_HILL_SLOPE 2, PBLUC_R_SQUARED 0.418, read-out: LUCIFERASE INFECTION ASSAY - IC50) was 6.01 µM.

As for `COc1ccc(CN2CCCN(C(=O)c3ccc(CSc4nc5ccccc5[nH]4)cc3)CC2)cc1`, the IC90 is above 10 µM. Besides, the 50% inhibitory concentration (IC50) (HEPG2TOX_HILL_SLOPE 1.31, HEPG2TOX_R_SQUARED 0.944, read-out: LUCIFERASE INFECTION ASSAY - IC50) was above 10 µM.

Take `Cc1ccc(Sc2ccc(NC(=O)C3CCN(C(=O)c4ccoc4)CC3)cc2)c(C)c1`: the IC90 came to 9.64 µM. Moreover, where the note is “HEPG2TOX_HILL_SLOPE 3.01, HEPG2TOX_R_SQUARED 0.581, PBLUC_HILL_SLOPE 14.8, 16.7, PBLUC_R_SQUARED 0.181, 0.0620, read-out: LUCIFERASE INFECTION ASSAY - IC50”, the IC50 was 9.11 µM.

In the case of `CCCCCCCCCCCCN1C(=O)CSC1c1cccnc1` (configuration not stated), the concentration for an effect of 90% (IC90) is above 9.47 µM. Moreover, the IC50 under setting [1] is above 9.47 µM.

Take `C=CCn1c(C)cc(C(=O)Cn2nnc(-c3ccccc3C)n2)c1C`: the IC90 is above 10 µM. Also, the 50% inhibitory concentration (IC50) (PBLUC_HILL_SLOPE 0.683, PBLUC_R_SQUARED 0.219, read-out: LUCIFERASE INFECTION ASSAY - IC50) is above 10 µM.

As for `COC(=O)CCSc1nnc(Nc2ccc(OC(F)(F)F)cc2)s1`, the IC90 is above 10 µM. The half-inhibitory concentration (IC50) under setting [1] was above 10 µM.

Regarding `Fc1ccc(CNc2ccc3ncc(Br)n3n2)cc1`, the IC90 was above 10.3 µM. Moreover, the concentration for half-maximal inhibition (IC50) (FFLUC_HILL_SLOPE 12.6, FFLUC_R_SQUARED 0.212, PBLUC_HILL_SLOPE 1.62, PBLUC_R_SQUARED 0.732, read-out: LUCIFERASE INFECTION ASSAY - IC50) was found to be 5.26 µM.

The values above are taken from ChEMBL document CHEMBL4483862, “Open-source discovery of chemical leads for next-generation chemoprotective antimalarials” (2018).
